According to patent US20230085307A1, “PYRIDAZINONE COMPOUND AND HERBICIDE” (NISSAN CHEMICAL CORPORATION, priority 2019, published 2023):

Legend:
late watergrass [1] = assay: Test Example 1: herbicidal activity, application before weed generation under submerged conditions (Table 16, symbol A); type: in vivo, late watergrass (Echinochloa oryzicola); conditions: 320 g/ha applied herbicide
Outline: (§1)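 Submerged Wagner pots (alluvial soil, 4 cm water) sown with weed seeds and planted with 2.5-leaf rice seedlings; emulsifiable concentrate diluted in water applied to water surface on sowing day. Held in greenhouse at 25-30 °C; injury scored 0-5 by herbicidal rate after three weeks.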

Japanese bulrush = assay: Test Example 1: herbicidal activity, application before weed generation under submerged conditions (Table 16, symbol B); type: in vivo, Japanese bulrush (Schoenoplectus juncoides); conditions: 320 g/ha applied herbicide
Outline: as §1

late watergrass [2] = assay: Test Example 2: herbicidal activity, application during weed generation under submerged conditions (Table 17, symbol A); type: in vivo, late watergrass (Echinochloa oryzicola); conditions: AAH 320 g/ha; application during weed generation, submerged conditions
Outline: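 In this pot test, flooded alluvial soil (water depth 4 cm) holds all three species sown as a mixture. Once seedlings have one to two leaves, the compound's emulsion, thinned with water to the intended dose, is poured on the water; grading follows after three weeks on the earlier criteria.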

Chinese sprangletop = assay: Test Example 3: herbicidal effect by foliage application, Wagner pot (Table 18, symbol D); type: in vivo, chinese sprangletop (Leptochloa chinensis); conditions: for herbicidal effect on D (Chinese sprangletop), rating 0-5: 320 g/ha
Outline: (§2)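 Plants were sown in alluvial soil held under 0.1–0.5 cm standing water and grown 14 days in a greenhouse at 25–30 °C. An emulsifiable formulation, water-diluted to the set dose, was then sprayed onto the foliage, and effects were scored three weeks later using previously defined criteria.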

rice flat sedge = assay: Test Example 3: herbicidal effect by foliage application, Wagner pot (Table 18, symbol E); type: in vivo, rice flat sedge (Cyperus iria); conditions: for herbicidal effect on E (rice flat sedge), rating 0-5: 320 g/ha
Outline: as §2

southern crabgrass = assay: Test Example 4: herbicidal effect by soil treatment (Table 19, symbol F); type: in vivo, southern crabgrass (Digitaria ciliaris); conditions: for herbicidal effect rating, F: southern crabgrass: 320 g/ha
Outline: (§3)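 Applied as a water-diluted emulsion, the compound was sprayed onto soil covering newly sown seeds. Evaluation came three weeks after application, in a greenhouse held at 25° C. to 30° C.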

wild oat [3] = assay: Test Example 4: herbicidal effect by soil treatment (Table 19, symbol I); type: in vivo, wild oat (Avena fatua); conditions: for herbicidal effect rating, I: wild oat: 320 g/ha
Outline: as §3

Italian ryegrass [4] = assay: Test Example 4: herbicidal effect by soil treatment (Table 19, symbol K); type: in vivo, Italian ryegrass (Lolium multiflorum); conditions: for herbicidal effect rating, K: Italian ryegrass: 320 g/ha
Outline: as §3

windgrass = assay: Test Example 4: herbicidal effect by soil treatment (Table 19, symbol L); type: in vivo, windgrass (Apera spica-venti); conditions: for herbicidal effect rating, L: windgrass: 320 g/ha
Outline: as §3

lambsquarters = assay: Test Example 4: herbicidal effect by soil treatment (Table 19, symbol O); type: in vivo, lambsquarters (Chenopodium album); conditions: for herbicidal effect rating, O: lambsquarters: 320 g/ha
Outline: as §3

chickweed = assay: Test Example 4: herbicidal effect by soil treatment (Table 19, symbol P); type: in vivo, common chickweed (Stellaria media); conditions: for herbicidal effect rating, P: chickweed: 320 g/ha
Outline: as §3

green foxtail = assay: Test Example 5: herbicidal effect by foliage application, plastic box (Table 20, symbol G); type: in vivo, green foxtail (Setaria viridis); conditions: foliage application, 320 g/ha, evaluated three weeks after application
Outline: (§4)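 Sow seeds spot-wise in sterilized diluvial soil; cover with ~1.5 cm soil. Grow 14 days in greenhouse, 25° C. to 30° C. Spray foliage with emulsion diluted to predetermined amount. Rate effect after 3 weeks.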

barnyard grass = assay: Test Example 5: herbicidal effect by foliage application, plastic box (Table 20, symbol H); type: in vivo, barnyard grass (Echinochloa crus-galli); conditions: foliage application, 320 g/ha, evaluated three weeks after application
Outline: as §4

wild oat [5] = assay: Test Example 5: herbicidal effect by foliage application, plastic box (Table 20, symbol I); type: in vivo, wild oat (Avena fatua); conditions: foliage application, 320 g/ha, evaluated three weeks after application
Outline: as §4

blackgrass = assay: Test Example 5: herbicidal effect by foliage application, plastic box (Table 20, symbol J); type: in vivo, blackgrass (Alopecurus myosuroides); conditions: foliage application, 320 g/ha, evaluated three weeks after application
Outline: as §4

Italian ryegrass [6] = assay: Test Example 5: herbicidal effect by foliage application, plastic box (Table 20, symbol K); type: in vivo, Italian ryegrass (Lolium multiflorum); conditions: foliage application, 320 g/ha, evaluated three weeks after application
Outline: as §4

velvetleaf = assay: Test Example 5: herbicidal effect by foliage application, plastic box (Table 20, symbol M); type: in vivo, velvetleaf (Abutilon theophrasti); conditions: foliage application, 320 g/ha, evaluated three weeks after application
Outline: as §4

[7] = amount of applied herbicide 320 g/ha

SMILES | Herbicidal effect on A: late watergrass (grade 0-5) (late watergrass [1]) | Herbicidal effect on B: Japanese bulrush (grade 0-5) (Japanese bulrush) | herbicidal effect rating, A: late watergrass (late watergrass [2]) | herbicidal effect on D (Chinese sprangletop), rating 0-5 (Chinese sprangletop) | herbicidal effect on E (rice flat sedge), rating 0-5 (rice flat sedge) | herbicidal effect rating, F: southern crabgrass (southern crabgrass) | herbicidal effect rating, I: wild oat (wild oat [3]) | herbicidal effect rating, K: Italian ryegrass (Italian ryegrass [4]) | herbicidal effect rating, L: windgrass (windgrass) | herbicidal effect rating, O: lambsquarters (lambsquarters) | herbicidal effect rating, P: chickweed (chickweed) | herbicidal effect on G: green foxtail (green foxtail) | herbicidal effect on H: barnyard grass (barnyard grass) | herbicidal effect on I: wild oat (wild oat [5]) | herbicidal effect on J: blackgrass (blackgrass) | herbicidal effect on K: Italian ryegrass (Italian ryegrass [6]) | herbicidal effect on M: velvetleaf (velvetleaf) | further results
CCCC(=O)Oc1c(C)nn(C)c(=O)c1-c1c(-c2ccc(F)cc2OCC)sc2ccc(F)cc12 [2-085] | 4 (Herbicidal rate of 70% or more and less than 90%) | 3 (Herbicidal rate of 40% or more and less than 70%) | 2 (Herbicidal rate of 20% or more and less than 40%) | 0 (Herbicidal rate of 5% or less (almost no effect)) | 4 (Herbicidal rate of 70% or more and less than 90%) | 4 (Herbicidal rate of 70% or more and less than 90%) | 2 (Herbicidal rate of 20% or more and less than 40%) | 0 (Herbicidal rate of 5% or less (almost no effect)) | 0 (Herbicidal rate of 5% or less (almost no effect)) | 3 (Herbicidal rate of 40% or more and less than 70%) | 3 (Herbicidal rate of 40% or more and less than 70%) | 3 (Herbicidal rate of 40% or more and less than 70%) | 4 (Herbicidal rate of 70% or more and less than 90%) | 3 (Herbicidal rate of 40% or more and less than 70%) | 1 (Herbicidal rate of 5% or more and less than 20%) | 3 (Herbicidal rate of 40% or more and less than 70%) | 5 (Herbicidal rate of 90% or more (almost completely withered)) | –
Cc1nn(C)c(=O)c(-c2c(-c3ccc4c(c3)OCCO4)sc3ccc(F)cc23)c1O [2-092] | 2 (Herbicidal rate of 20% or more and less than 40%) | 3 (Herbicidal rate of 40% or more and less than 70%) | 0 (Herbicidal rate of 5% or less (almost no effect)) | 4 (Herbicidal rate of 70% or more and less than 90%) | 5 (Herbicidal rate of 90% or more (almost completely withered)) | 2 (Herbicidal rate of 20% or more and less than 40%) | 0 (Herbicidal rate of 5% or less (almost no effect)) | 1 (Herbicidal rate of 5% or more and less than 20%) | 0 (Herbicidal rate of 5% or less (almost no effect)) | 5 (Herbicidal rate of 90% or more (almost completely withered)) | 4 (Herbicidal rate of 70% or more and less than 90%) | 4 (Herbicidal rate of 70% or more and less than 90%) | 5 (Herbicidal rate of 90% or more (almost completely withered)) | 3 (Herbicidal rate of 40% or more and less than 70%) | 4 (Herbicidal rate of 70% or more and less than 90%) | 4 (Herbicidal rate of 70% or more and less than 90%) | 5 (Herbicidal rate of 90% or more (almost completely withered)) | –
Cc1nn(C)c(=O)c(-c2c(-c3ccc(C(F)(F)F)cc3)sc3ccc(Cl)cc23)c1O [2-111] | 3 (Herbicidal rate of 40% or more and less than 70%) | 3 (Herbicidal rate of 40% or more and less than 70%) | 2 (Herbicidal rate of 20% or more and less than 40%) | – | – | – | – | – | – | – | – | 0 (Herbicidal rate of 5% or less (almost no effect)) | 4 (Herbicidal rate of 70% or more and less than 90%) | 0 (Herbicidal rate of 5% or less (almost no effect)) | 5 (Herbicidal rate of 90% or more (almost completely withered)) | 3 (Herbicidal rate of 40% or more and less than 70%) | 3 (Herbicidal rate of 40% or more and less than 70%) | herbicidal effect on D: Chinese sprangletop (Chinese sprangletop; [7]): 2 (Herbicidal rate of 20% or more and less than 40%); herbicidal effect on E: rice flat sedge (rice flat sedge; [7]): 3 (Herbicidal rate of 40% or more and less than 70%); F: southern crabgrass, herbicidal effect rating (southern crabgrass; [7]): 0 (Herbicidal rate of 5% or less (almost no effect)); I: wild oat, herbicidal effect rating (wild oat [3]; [7]): 0 (Herbicidal rate of 5% or less (almost no effect)); K: Italian ryegrass, herbicidal effect rating (Italian ryegrass [4]; [7]): 3 (Herbicidal rate of 40% or more and less than 70%); L: windgrass, herbicidal effect rating (windgrass; [7]): 5 (Herbicidal rate of 90% or more (almost completely withered)); O: lambsquarters, herbicidal effect rating (lambsquarters; [7]): 4 (Herbicidal rate of 70% or more and less than 90%); P: chickweed, herbicidal effect rating (chickweed; [7]): 0 (Herbicidal rate of 5% or less (almost no effect))
